Where two headings read alike, the source gives them in different places.
What was measured:
[1] = tested on: HTB-54; test: cells; assay type: cell-based; details: Homo sapiens; for CC50: HTB-54, 48 h, read-out: LC50 HTB54; for GI50 / IC (TGI): HTB-54, 48 h, average ± SEM; for GI50: read-out: GI50 HTB54; for IC (TGI): read-out: TGI HTB54
Procedure: (§1) Cell lines were provided by the European Collection of Cell Cultures (ECACC) or by the American Type Culture Collection (ATCC). Seven cell lines were used: MCF-7 (breast adenocarnicoma), 184B5 (nonmalignant, mammary gland derived), CCRF-CEM (lymphoblastic leukemia), HT-29 (colon carcinoma), HTB-54 (lung carcinoma), BEAS-2B (nonmalignant, derived from the bronchial epithelium) and PC-3 (prostate carcinoma). MCF-7, CCRF-CEM, HT-29, HTB-54, BEAS-2B and PC-3 cell lines were grown in RPMI medium (Gibco) supplemented with 10% fetal bovine serum (FBS; Gibco), 100 units/mL penicillin and […] streptomycin (Gibco). 184B5 cells were grown in DMEM/F12 medium supplemented with 5% FBS, 1 × ITS (Lonza), 100 nM hydrocortisone (Aldich), 2 mM sodium pyruvate (Lonza), 20 ng/mL EGF (Sigma-Aldrich), 0.3 nM trans-retinoic acid (Sigma-Aldrich), 100 units/mL penicillin and […] streptomycin. Cells were maintained at 37 °C and 5% CO2.
(§2) The cytotoxic effect of each substance was tested by the MTT method. Each compound was initially dissolved in DMSO at a concentration of 0.01 M, and serial dilutions were prepared with nonsupplemented medium. The cytotoxic effect of each compound was tested at 50 and 10 µM as a first screening. […]
(§3) A total of 1 × 10^4 cells/well in 96-well plates were treated with increasing concentrations of the corresponding compounds for 48 h at 37 °C in a humidified atmosphere containing 5% CO2. Then, cells were incubated with 50 µL of MTT (2 mg/mL stock) for 4 h. The medium was then removed by aspiration, and the formazan crystals were dissolved in […] of DMSO. […] Data were obtained from at least 3 independent experiments performed in quadruplicate. The standard error of the means (SEM) for the cytotoxic parameters was calculated applying the standard deviation formula to the mean values of each parameter for the three independent experiments performed.
(§4) . Cisplatin was used as a standard drug. […]. […] The presence of electron-withdrawing groups (-NO2, -CF3, -Cl) in the phenyl ring favored the cytotoxic activity in the amides, but in the phosphoramidates, the best results were obtained for aliphatic chains methoxy (II.1b, II.2b) and ethoxy (II.1d, II.2d). […].

[2] = tested on: PC-3; test: cells; assay type: cell-based; details: Homo sapiens; for LC50: PC-3, 48 h, read-out: LC50 PC-3; for GI50 / IC (TGI): PC-3, 48 h, average ± SEM; for GI50: read-out: GI50 PC-3; for IC (TGI): read-out: TGI PC-3
Procedure: as §1, §2, §3, §4

[3] = MTT cytotoxicity in nonmalignant mammary gland derived cells; assay type: cell-based; details: human
Procedure: as §1, §2, §3, §4
(§5) The lack of selectivity toward cancerous cells is one of the major issues during the discovery and development of new anticancer agents. Therefore, we evaluated the cytotoxic activity of our compounds against two cell lines derived from nonmalignant breast tissue (184B5) and no malignant bronchial epithelium (BEAS-2B) (Table 2). […].

[4] = tested on: 184B5; test: as above; assay type: cell-based; details: for GI50 / IC (TGI): Homo sapiens, 184B5, nonmalignant cells, 48 h; for GI50: read-out: GI50 184B5; for IC (TGI): read-out: TGI 184B5; for Selectivity index (SI) = GI50 (184B5)/GI50 (MCF-7): breast
Procedure: as §1, §2, §3, §4, §5

[5] = MTT cytotoxicity in nonmalignant bronchial epithelium cells; assay type: cell-based; details: human
Procedure: as §1, §2, §3, §4, §5

[6] = tested on: BEAS-2B; test: as above; assay type: cell-based; details: for GI50 / IC (TGI): Homo sapiens, BEAS-2B, nonmalignant cells, 48 h; for GI50: read-out: GI50 BEAS-2B; for IC (TGI): read-out: TGI BEAS-2B
Procedure: as §1, §2, §3, §4, §5

[7] = DPPH radical scavenging assay; details: for DPPH radical scavenging activity: 0.003 mg/mL; for DPPH activity inhibition: 0.03 mg/mL, after 30 min
Procedure: The DPPH (1,1-diphenyl-2-picrylhydrazyl radical) assay measures the hydrogen donation ability of the antioxidant to convert the stable DPPH free radical into 1,1-diphenyl-2-(2,4,6-trinitrophenyl)-hydrazine. After radical reaction with the compounds, a decrease in the absorbance was detected at 517 nm, which is accompanied by a change of color from violet to light-yellow. The target compounds were dissolved in methanol to make 1 mg/mL stock solutions, which were diluted to five concentrations as test samples. Ascorbic acid was used as a standard, and the experiment was carried out on 96-well plates. The DPPH solution was prepared at a 100 µM concentration. For each test, 100 µL of DPPH solution was added to 100 µL of methanolic solution containing the tested derivatives, and the absorbance was determined at different time points. All the measurements were carried out in triplicate. Results were expressed as the percentage of the radical scavenged, calculated using the following formula:(1) % DPPH radical scavenging=Acontrol − Asample/Acontrol × 100 where Acontrol refers to the absorbance of the negative control, and Asample refers to the absorbance of the tested compounds. Results are expressed as a percentage of DPPH radical scavenged ± SEM.
. Ascorbic acid and Trolox were used as radical scavenger gold standards. […]. No correlation was found for either structure–radical scavenging activity or antitumor–radical scavenging activity, except for compound I.2f, one of the selected cytotoxic agents. To further confirm this antioxidant activity, three compounds (I.1e, I.1g and I.2i) were also evaluated as DPPH radical scavengers at a lower concentration of 0.003 mg/mL (Figure 3B).

[8] = tested on: MCF-7; test: cells; details: Homo sapiens, MCF7, 48 h; for activity at 10 µM: read-out: Cell growth (%) MCF-7; for GI50: read-out: GI50 MCF-7, 48 h, average ± SEM; for CC50: read-out: LC50 MCF-7; for IC (TGI): read-out: TGI MCF-7
[9] = tested on: CCRF-CEM; test: cells; details: Homo sapiens, 48 h; for activity at 10 µM: read-out: Cell growth (%) CCRF-CEM; for GI50: read-out: GI50 CCRF-CEM; for CC50: read-out: LC50 CCRF-CEM; for IC (TGI): read-out: TGI CCRF-CEM
[10] = tested on: HT-29; test: cells; details: Homo sapiens, HT-29, 48 h; for activity at 10 µM: read-out: Cell growth (%) HT-29; for GI50: read-out: GI50 HT-29; for CC50: read-out: LC50 HT-29; for IC (TGI): read-out: TGI HT-29
[11] = tested on: MCF-7; details: read-out: GI50 MCF-7; 48 h, average ± SEM

| SMILES | CC50 [1] [µM] | GI50 [1] [µM] | IC (TGI) [1] [µM] | LC50 [2] [µM] | GI50 [2] [µM] | IC (TGI) [2] [µM] | LC50 (50% lethal concentration) at 48 h [3] [µM] | GI50 [4] [µM] | IC (TGI) [4] [µM] | Selectivity index (SI) = GI50 (184B5)/GI50 (MCF-7) [4] | LC50 (50% lethal concentration) at 48 h [5] [µM] | GI50 [6] [µM] | IC (TGI) [6] [µM] | DPPH radical scavenging activity [7] | DPPH activity inhibition [7] | activity at 10 µM [8] [%] | GI50 [8] [µM] | CC50 [8] [µM] | activity at 10 µM [9] [%] | activity at 10 µM [10] [%] | other results |
| --- | --- | --- | --- | --- | --- | --- | --- | --- | --- | --- | --- | --- | --- | --- | --- | --- | --- | --- | --- | --- | --- |
| O=C(Nc1ccc([Se][Se]c2ccc(NC(=O)c3ccc([N+](=O)[O-])cc3)cc2)cc1)c1ccc([N+](=O)[O-])cc1 [I.1e] | 72.8 ± 1.4 | 16.9 ± 3.1 | 44.8 ± 2.3 | 64.9 ± 1.1 | 2.5 ± 0.2 | 28.5 ± 1.9 | 68.2 | 7.76 | 33.8 | 1.14 | 15.8 | 0.42 | 4.8 | some moderate effect was observed | greater than 35% | 45.2 | 7.4 ± 1 | 73.4 ± 0.1 | 35.4 | 49.2 | Selectivity index (SI) = GI50 (BEAS-2B)/GI50 (HTB-54) ([6]; lung): 0.02; IC (TGI) [8]: 40.1 ± 0.1 µM; GI50 [9]: 6.5 ± 1.5 µM; CC50 [9]: 67 ± 2 µM; IC (TGI) [9]: 33.8 ± 2 µM; GI50 [10]: 16.8 ± 2.5 µM; CC50 [10]: 72.3 ± 1.8 µM; IC (TGI) [10]: 44.6 ± 3.1 µM |
| Cc1ccc(C(=O)Nc2ccc([Se][Se]c3ccc(NC(=O)c4ccc(C)cc4)cc3)cc2)cc1 [I.1g] | – | – | – | – | – | – | – | – | – | – | – | – | – | some moderate effect was observed | greater than 35% | 57.5 | – | – | 105 | 109 | – |
| CSc1ccc(C(=O)Nc2ccc([Se][Se]c3ccc(NC(=O)c4ccc(SC)cc4)cc3)cc2)cc1 [I.1n] | – | – | – | – | – | – | – | – | – | – | – | – | – | – | greater than 35% | 64 | – | – | 72.1 | 50.6 | – |
| N#C[Se]c1ccc(NC(=O)c2ccc(Cl)cc2)cc1 [I.2b] | > 100 | > 100 | > 100 | > 100 | > 100 | > 100 | > 100 | 0.89 | > 100 | 1.53 | > 100 | > 100 | > 100 | – | – | 33.5 | < 1 | > 100 | 50.1 | 52.3 | GI50 [11]: 0.5 ± 0.9 µM; IC (TGI) [8]: 51.8 ± 2.5 µM; GI50 [9]: 8.7 ± 1.1 µM; CC50 [9]: > 100 µM; IC (TGI) [9]: > 100 µM; GI50 [10]: 16.5 ± 3.6 µM; CC50 [10]: > 100 µM; IC (TGI) [10]: > 100 µM |
